Measured values published in PubChem BioAssay AID1982 (Sanford-Burnham Center for Chemical Genomics, 2009).
The source made the active and inactive calls. No rule for the calls is given here.

Columns and labels:
Assay in all cases: kinase panel binding selectivity, selectivity assay, biochemical, KINOMEscan (AID 1982)
[1] = biological target: Calcium/calmodulin-dependent protein kinase type II subunit alpha (Homo sapiens) (UniProt Q9UQM7); settings: KINOMEscan 353-kinase binding panel, qPCR; CAMK2A; at 10 µM; active compounds read low
MERTK = settings: KINOMEscan 353-kinase binding panel, qPCR, at 10 µM, active compounds read low
[2] = biological target: Tyrosine-protein kinase Srms (Homo sapiens) (UniProt Q9H3Y6); settings: KINOMEscan 353-kinase binding panel, qPCR, at 10 µM, active compounds read low
[3] = biological target: Serine/threonine-protein kinase 17A (Homo sapiens) (UniProt Q9UEE5); settings: KINOMEscan 353-kinase binding panel, qPCR; DRAK1; at 10 µM; active compounds read low
RPS6KA1(Kin.Dom.1) = settings: KINOMEscan 353-kinase binding panel, qPCR, at 10 µM, active compounds read low
[4] = biological target: Casein kinase II subunit alpha (Homo sapiens) (UniProt P68400); settings: KINOMEscan 353-kinase binding panel, qPCR; CSNK2A1; at 10 µM; active compounds read low
[5] = biological target: Insulin-like growth factor 1 receptor (Homo sapiens) (UniProt P08069); settings: KINOMEscan 353-kinase binding panel, qPCR; IGF1R; at 10 µM; active compounds read low
[6] = biological target: Inhibitor of nuclear factor kappa-B kinase subunit epsilon (Homo sapiens) (UniProt Q14164); settings: KINOMEscan 353-kinase binding panel, qPCR; IKK-epsilon; at 10 µM; active compounds read low
EPHA8 = settings: KINOMEscan 353-kinase binding panel, qPCR, at 10 µM, active compounds read low
PRKCH = settings: KINOMEscan 353-kinase binding panel, qPCR, at 10 µM, active compounds read low
TIE1 = settings: KINOMEscan 353-kinase binding panel, qPCR, at 10 µM, active compounds read low
NEK1 = settings: KINOMEscan 353-kinase binding panel, qPCR, at 10 µM, active compounds read low
[7] = biological target: LIM domain kinase 1 (Homo sapiens) (UniProt P53667); settings: KINOMEscan 353-kinase binding panel, qPCR; LIMK1; at 10 µM; active compounds read low
RIPK4 = settings: KINOMEscan 353-kinase binding panel, qPCR, at 10 µM, active compounds read low
[8] = biological target: Serine/threonine-protein kinase NLK (Homo sapiens) (UniProt Q9UBE8); settings: KINOMEscan 353-kinase binding panel, qPCR, at 10 µM, active compounds read low
CSNK1E = settings: KINOMEscan 353-kinase binding panel, qPCR, at 10 µM, active compounds read low
DMPK = settings: KINOMEscan 353-kinase binding panel, qPCR, at 10 µM, active compounds read low
[9] = biological target: Serine/threonine-protein kinase PLK1 (Homo sapiens) (UniProt P53350); settings: KINOMEscan 353-kinase binding panel, qPCR, at 10 µM, active compounds read low
ACVR1B = settings: KINOMEscan 353-kinase binding panel, qPCR, at 10 µM, active compounds read low
[10] = biological target: STE20-like serine/threonine-protein kinase (Homo sapiens) (UniProt Q9H2G2); settings: KINOMEscan 353-kinase binding panel, qPCR; SLK; at 10 µM; active compounds read low
[11] = biological target: Mitogen-activated protein kinase 10 (Homo sapiens) (UniProt P53779); settings: KINOMEscan 353-kinase binding panel, qPCR; JNK3; at 10 µM; active compounds read low
NEK6 = settings: KINOMEscan 353-kinase binding panel, qPCR, at 10 µM, active compounds read low
[12] = biological target: Casein kinase I isoform gamma-3 (Homo sapiens) (UniProt Q9Y6M4); settings: KINOMEscan 353-kinase binding panel, qPCR; CSNK1G3; at 10 µM; active compounds read low
PIK3CG = settings: KINOMEscan 353-kinase binding panel, qPCR, at 10 µM, active compounds read low
[13] = biological target: Rho-associated protein kinase 2 (Homo sapiens) (UniProt O75116); settings: KINOMEscan 353-kinase binding panel, qPCR; ROCK2; at 10 µM; active compounds read low
AURKC = settings: KINOMEscan 353-kinase binding panel, qPCR, at 10 µM, active compounds read low
AAK1 = settings: KINOMEscan 353-kinase binding panel, qPCR, at 10 µM, active compounds read low
MLCK = settings: KINOMEscan 353-kinase binding panel, qPCR, at 10 µM, active compounds read low
ACVRL1 = settings: KINOMEscan 353-kinase binding panel, qPCR, at 10 µM, active compounds read low
LIMK2 = settings: KINOMEscan 353-kinase binding panel, qPCR, at 10 µM, active compounds read low
[14] = biological target: Tyrosine-protein kinase Blk (Homo sapiens) (UniProt P51451); settings: KINOMEscan 353-kinase binding panel, qPCR, at 10 µM, active compounds read low
JAK1(Kin.Dom.2) = settings: KINOMEscan 353-kinase binding panel, qPCR, at 10 µM, active compounds read low
[15] = biological target: Mitogen-activated protein kinase 9 (Homo sapiens) (UniProt P45984); settings: KINOMEscan 353-kinase binding panel, qPCR; JNK2; at 10 µM; active compounds read low
[16] = biological target: MAP kinase-interacting serine/threonine-protein kinase 2 (Homo sapiens) (UniProt Q9HBH9); settings: KINOMEscan 353-kinase binding panel, qPCR; MKNK2; at 10 µM; active compounds read low
RPS6KA6(Kin.Dom.2) = settings: KINOMEscan 353-kinase binding panel, qPCR, at 10 µM, active compounds read low
RPS6KA6(Kin.Dom.1) = settings: KINOMEscan 353-kinase binding panel, qPCR, at 10 µM, active compounds read low

Sequence of Mitogen-activated protein kinase 9 (Homo sapiens) (P45984 whole entry, looked up): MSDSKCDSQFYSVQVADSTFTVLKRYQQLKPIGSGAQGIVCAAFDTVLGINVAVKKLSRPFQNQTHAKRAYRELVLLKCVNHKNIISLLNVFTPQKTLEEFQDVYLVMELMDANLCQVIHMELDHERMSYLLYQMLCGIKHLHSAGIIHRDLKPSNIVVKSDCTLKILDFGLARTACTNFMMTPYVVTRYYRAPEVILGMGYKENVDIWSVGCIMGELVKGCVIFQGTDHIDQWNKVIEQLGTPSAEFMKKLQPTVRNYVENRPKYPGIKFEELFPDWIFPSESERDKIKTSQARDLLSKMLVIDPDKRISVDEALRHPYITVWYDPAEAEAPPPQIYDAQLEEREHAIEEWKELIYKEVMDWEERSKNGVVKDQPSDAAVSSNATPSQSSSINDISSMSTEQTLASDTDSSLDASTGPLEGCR
Sequence of Insulin-like growth factor 1 receptor (Homo sapiens) (P08069 whole entry, looked up): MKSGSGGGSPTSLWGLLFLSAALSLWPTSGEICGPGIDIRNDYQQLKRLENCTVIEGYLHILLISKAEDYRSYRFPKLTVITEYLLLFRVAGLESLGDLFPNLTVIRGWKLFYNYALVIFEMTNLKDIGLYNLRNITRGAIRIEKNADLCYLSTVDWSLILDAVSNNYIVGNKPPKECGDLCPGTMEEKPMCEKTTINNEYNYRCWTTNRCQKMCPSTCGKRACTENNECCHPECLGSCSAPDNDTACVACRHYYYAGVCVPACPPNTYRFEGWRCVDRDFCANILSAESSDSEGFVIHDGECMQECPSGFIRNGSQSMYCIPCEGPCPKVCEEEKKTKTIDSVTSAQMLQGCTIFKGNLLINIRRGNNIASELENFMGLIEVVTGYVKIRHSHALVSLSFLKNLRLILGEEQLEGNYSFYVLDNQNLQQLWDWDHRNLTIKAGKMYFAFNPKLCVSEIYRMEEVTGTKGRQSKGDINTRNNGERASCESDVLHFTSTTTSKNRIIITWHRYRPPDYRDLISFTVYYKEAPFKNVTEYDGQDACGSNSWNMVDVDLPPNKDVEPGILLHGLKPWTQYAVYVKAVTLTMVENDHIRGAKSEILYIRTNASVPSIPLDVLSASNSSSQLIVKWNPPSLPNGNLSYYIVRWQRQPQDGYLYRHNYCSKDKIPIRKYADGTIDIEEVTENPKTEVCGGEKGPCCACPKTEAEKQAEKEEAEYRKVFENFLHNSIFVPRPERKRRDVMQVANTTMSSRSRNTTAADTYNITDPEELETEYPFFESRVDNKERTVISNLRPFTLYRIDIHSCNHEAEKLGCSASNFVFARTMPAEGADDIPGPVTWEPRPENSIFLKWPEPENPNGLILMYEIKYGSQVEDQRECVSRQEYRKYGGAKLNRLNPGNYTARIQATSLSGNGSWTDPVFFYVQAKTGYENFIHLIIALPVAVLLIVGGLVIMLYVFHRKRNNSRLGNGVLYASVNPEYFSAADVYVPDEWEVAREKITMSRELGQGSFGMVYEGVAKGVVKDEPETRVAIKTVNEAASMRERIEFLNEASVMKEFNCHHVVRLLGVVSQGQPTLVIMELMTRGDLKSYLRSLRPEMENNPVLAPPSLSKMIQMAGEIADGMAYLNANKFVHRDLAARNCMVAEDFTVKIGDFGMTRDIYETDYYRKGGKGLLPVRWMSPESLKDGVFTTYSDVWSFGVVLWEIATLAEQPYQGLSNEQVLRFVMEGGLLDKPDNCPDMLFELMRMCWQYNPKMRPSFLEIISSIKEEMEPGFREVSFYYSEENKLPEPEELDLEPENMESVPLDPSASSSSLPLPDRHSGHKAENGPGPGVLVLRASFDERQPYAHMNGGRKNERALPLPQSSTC
Sequence of Tyrosine-protein kinase Blk (Homo sapiens) (P51451 whole entry, looked up): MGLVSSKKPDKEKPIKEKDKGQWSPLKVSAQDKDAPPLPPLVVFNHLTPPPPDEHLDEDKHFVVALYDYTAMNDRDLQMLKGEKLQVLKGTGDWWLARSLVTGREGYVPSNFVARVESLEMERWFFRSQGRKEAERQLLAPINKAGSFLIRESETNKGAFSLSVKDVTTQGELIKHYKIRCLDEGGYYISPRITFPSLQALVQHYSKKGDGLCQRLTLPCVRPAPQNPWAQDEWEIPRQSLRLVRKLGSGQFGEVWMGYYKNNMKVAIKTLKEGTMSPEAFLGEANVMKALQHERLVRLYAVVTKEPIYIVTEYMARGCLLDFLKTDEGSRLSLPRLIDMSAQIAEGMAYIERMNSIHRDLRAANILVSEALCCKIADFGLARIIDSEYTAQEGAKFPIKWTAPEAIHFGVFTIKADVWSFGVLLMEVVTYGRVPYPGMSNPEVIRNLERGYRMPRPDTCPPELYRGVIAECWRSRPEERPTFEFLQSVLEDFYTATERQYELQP
Sequence of Serine/threonine-protein kinase 17A (Homo sapiens) (Q9UEE5 whole entry, looked up): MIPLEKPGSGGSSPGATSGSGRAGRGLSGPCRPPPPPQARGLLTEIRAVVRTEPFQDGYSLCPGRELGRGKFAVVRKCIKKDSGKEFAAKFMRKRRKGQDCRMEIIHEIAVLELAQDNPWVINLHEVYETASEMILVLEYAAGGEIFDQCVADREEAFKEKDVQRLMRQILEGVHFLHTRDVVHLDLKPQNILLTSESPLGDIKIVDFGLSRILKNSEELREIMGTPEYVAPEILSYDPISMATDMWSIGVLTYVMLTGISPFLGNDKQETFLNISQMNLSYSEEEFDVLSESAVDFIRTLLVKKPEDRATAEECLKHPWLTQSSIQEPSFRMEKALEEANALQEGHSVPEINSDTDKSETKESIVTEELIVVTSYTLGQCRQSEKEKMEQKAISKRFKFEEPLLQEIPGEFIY
Sequence of Mitogen-activated protein kinase 10 (Homo sapiens) (P53779 whole entry, looked up): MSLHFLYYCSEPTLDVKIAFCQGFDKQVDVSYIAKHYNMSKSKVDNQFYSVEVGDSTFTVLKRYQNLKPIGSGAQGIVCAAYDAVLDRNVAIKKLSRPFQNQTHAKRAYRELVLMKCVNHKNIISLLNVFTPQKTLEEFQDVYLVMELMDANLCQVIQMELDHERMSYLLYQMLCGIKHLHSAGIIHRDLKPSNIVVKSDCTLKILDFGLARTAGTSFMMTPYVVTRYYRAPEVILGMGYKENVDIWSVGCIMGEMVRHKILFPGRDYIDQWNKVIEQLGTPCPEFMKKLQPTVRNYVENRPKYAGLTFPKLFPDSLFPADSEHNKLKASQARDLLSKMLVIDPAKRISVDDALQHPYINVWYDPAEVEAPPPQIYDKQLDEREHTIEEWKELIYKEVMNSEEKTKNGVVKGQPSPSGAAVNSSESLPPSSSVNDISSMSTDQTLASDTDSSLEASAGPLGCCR
Sequence of Serine/threonine-protein kinase NLK (Homo sapiens) (Q9UBE8 whole entry, looked up): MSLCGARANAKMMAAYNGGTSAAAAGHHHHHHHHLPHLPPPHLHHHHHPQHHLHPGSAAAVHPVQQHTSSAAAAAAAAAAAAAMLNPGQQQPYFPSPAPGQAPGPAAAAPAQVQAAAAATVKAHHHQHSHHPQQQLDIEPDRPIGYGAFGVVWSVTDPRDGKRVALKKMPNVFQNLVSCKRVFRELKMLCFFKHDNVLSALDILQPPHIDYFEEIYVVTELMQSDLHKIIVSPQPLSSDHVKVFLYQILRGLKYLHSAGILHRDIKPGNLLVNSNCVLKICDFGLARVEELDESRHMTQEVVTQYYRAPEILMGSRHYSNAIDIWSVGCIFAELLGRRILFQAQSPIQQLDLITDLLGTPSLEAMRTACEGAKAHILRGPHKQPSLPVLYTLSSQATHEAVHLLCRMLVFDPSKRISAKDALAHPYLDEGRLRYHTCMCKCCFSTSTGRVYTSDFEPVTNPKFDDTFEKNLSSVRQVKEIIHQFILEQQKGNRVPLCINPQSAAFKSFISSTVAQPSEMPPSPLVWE
Sequence of Inhibitor of nuclear factor kappa-B kinase subunit epsilon (Homo sapiens) (Q14164 whole entry, looked up): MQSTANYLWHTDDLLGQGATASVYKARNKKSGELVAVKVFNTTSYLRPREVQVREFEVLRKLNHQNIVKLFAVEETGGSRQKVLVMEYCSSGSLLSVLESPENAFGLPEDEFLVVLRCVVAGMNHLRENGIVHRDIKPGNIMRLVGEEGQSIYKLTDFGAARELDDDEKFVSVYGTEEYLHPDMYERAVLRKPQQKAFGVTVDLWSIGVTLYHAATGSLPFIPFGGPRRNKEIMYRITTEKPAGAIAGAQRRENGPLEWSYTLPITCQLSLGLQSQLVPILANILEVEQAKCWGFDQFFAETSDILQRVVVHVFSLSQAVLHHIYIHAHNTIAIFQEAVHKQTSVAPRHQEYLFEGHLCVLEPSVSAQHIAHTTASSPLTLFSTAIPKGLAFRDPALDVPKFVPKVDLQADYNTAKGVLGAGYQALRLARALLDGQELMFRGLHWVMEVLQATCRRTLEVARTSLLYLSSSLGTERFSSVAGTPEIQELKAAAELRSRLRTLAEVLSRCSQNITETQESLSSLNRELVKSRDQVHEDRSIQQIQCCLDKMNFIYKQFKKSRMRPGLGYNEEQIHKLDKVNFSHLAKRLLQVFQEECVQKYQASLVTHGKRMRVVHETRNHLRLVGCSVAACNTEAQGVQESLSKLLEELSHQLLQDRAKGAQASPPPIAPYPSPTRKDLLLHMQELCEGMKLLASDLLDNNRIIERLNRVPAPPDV
Sequence of Tyrosine-protein kinase Srms (Homo sapiens) (Q9H3Y6 whole entry, looked up): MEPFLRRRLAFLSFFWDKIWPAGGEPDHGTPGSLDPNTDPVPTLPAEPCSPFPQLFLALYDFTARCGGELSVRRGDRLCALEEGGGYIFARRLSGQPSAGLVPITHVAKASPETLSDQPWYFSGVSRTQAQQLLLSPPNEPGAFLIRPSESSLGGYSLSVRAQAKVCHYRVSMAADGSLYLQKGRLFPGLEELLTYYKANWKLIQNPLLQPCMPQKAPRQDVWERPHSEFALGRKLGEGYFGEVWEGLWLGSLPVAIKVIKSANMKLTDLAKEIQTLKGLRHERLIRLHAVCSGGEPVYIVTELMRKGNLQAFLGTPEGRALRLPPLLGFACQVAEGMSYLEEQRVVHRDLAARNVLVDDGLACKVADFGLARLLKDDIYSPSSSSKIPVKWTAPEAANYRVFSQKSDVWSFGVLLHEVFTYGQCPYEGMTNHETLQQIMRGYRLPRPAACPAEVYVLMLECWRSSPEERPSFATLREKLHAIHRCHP

percent of control binding [1]: 85% (inactive)
percent of control binding (MERTK): 100% (inactive)
percent of control binding [2]: 100% (inactive)
percent of control binding [3]: 89% (inactive)
percent of control binding (RPS6KA1(Kin.Dom.1)): 59% (inactive)
percent of control binding [4]: 81% (inactive)
percent of control binding [5]: 54% (inactive)
percent of control binding [6]: 86% (inactive)
percent of control binding (EPHA8): 88% (inactive)
percent of control binding (PRKCH): 100% (inactive)
percent of control binding (TIE1): 100% (inactive)
percent of control binding (NEK1): 91% (inactive)
percent of control binding [7]: 95% (inactive)
percent of control binding (RIPK4): 89% (inactive)
percent of control binding [8]: 100% (inactive)
percent of control binding (CSNK1E): 96% (inactive)
percent of control binding (DMPK): 93% (inactive)
percent of control binding [9]: 67% (inactive)
percent of control binding (ACVR1B): 84% (inactive)
percent of control binding [10]: 100% (inactive)
percent of control binding [11]: 86% (inactive)
percent of control binding (NEK6): 93% (inactive)
percent of control binding [12]: 100% (inactive)
percent of control binding (PIK3CG): 86% (inactive)
percent of control binding [13]: 59% (inactive)
percent of control binding (AURKC): 100% (inactive)
percent of control binding (AAK1): 100% (inactive)
percent of control binding (MLCK): 91% (inactive)
percent of control binding (ACVRL1): 100% (inactive)
percent of control binding (LIMK2): 80% (inactive)
percent of control binding [14]: 99% (inactive)
percent of control binding (JAK1(Kin.Dom.2)): 90% (inactive)
percent of control binding [15]: 100% (inactive)
percent of control binding [16]: 81% (inactive)
percent of control binding (RPS6KA6(Kin.Dom.2)): 100% (inactive)
percent of control binding (RPS6KA6(Kin.Dom.1)): 97% (inactive)
Structure (SMILES): Cc1cc2nc(NCCCO)n(CC(=O)c3cc(C(C)(C)C)c(O)c(C(C)(C)C)c3)c2cc1C
